Data as given in patent publication US10017481B2, “Conformationally constrained, fully synthetic macrocyclic compounds” (POLYPHOR AG, priority 2012, dated 2018).
pEC50, pIC50: −log10 of the molar value. Like-named read-outs stand apart in the source and are kept apart here.

Legend:
[1] = molecular target: T1, Human recombinant cathepsin S (Homo sapiens, UniProt P25774); settings: reference compound of the CatS assay; 0.1 μg/ml enzyme, acetate buffer pH 4.5, 25° C.; cited from earlier work
T1 construct: host or cells: murine myeloma NS0 cells
T1 sequence (P25774 115-331): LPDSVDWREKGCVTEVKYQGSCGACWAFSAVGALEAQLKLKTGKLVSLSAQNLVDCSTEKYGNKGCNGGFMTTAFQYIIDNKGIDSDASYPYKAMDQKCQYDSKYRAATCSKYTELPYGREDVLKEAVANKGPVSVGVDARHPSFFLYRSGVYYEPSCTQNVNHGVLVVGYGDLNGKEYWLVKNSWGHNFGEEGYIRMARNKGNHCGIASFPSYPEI

Human recombinant ECE-1 = molecular target: T2, Human recombinant ECE-1 (Homo sapiens, UniProt P42892); assay: Endothelin converting enzyme-1 (ECE-1) enzyme assay; type: biochemical; settings: for inhibition at 10 µM: read-out: % Inhibition at 10 μM
T2 construct: host or cells: murine myeloma NS0 cells
T2 sequence (P42892 1-770): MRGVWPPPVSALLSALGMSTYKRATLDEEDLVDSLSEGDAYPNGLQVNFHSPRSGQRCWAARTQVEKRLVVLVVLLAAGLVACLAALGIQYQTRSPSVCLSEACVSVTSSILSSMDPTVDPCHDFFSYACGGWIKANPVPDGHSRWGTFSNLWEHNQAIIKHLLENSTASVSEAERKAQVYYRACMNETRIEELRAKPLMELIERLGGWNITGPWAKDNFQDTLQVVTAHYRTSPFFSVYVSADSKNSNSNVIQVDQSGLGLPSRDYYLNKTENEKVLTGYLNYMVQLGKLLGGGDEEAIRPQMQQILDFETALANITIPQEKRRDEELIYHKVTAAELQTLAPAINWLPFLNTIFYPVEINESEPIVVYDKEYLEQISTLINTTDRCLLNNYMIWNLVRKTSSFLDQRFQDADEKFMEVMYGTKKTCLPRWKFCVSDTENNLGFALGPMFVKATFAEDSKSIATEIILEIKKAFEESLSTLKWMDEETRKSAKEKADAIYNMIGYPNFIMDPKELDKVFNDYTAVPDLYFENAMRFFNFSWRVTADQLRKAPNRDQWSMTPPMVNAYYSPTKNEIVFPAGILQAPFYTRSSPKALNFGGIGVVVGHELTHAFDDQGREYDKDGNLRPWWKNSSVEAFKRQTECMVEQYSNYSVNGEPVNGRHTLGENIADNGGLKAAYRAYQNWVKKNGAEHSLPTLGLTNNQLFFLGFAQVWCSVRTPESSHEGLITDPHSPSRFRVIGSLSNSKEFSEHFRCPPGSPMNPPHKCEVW
Procedure: (§1) 2. Enzyme Assays for the Peptidase Endothelin Converting Enzyme-1 (ECE-1) and for the Cysteine Protease Cathepsin S (CatS)
(§2) The assays were performed according to provider's (Ricerca Biosciences, LLC) protocols which in turn are based on literature procedures (for ECE-1 cf.: O. Valdenaire et al., Eur. J. Biochem. 1999, 264, 341-349; F. D. Russell, A. P. Davenport, Circ. Res. 1999, 84, 891-896; and for CatS: G P Shi et al., J. Biol. Chem. 1992, 267, 7258-62; D Brömme et al., J. Biol. Chem. 1993 268, 4832-4838.).
Human recombinant ECE-1 expressed in murine myeloma cells NS0 is used. Test compound and/or vehicle is preincubated with 20 ng/ml enzyme in modified MES buffer pH 6.0 for 15 minutes at 25° C. The reaction is initiated by addition of […] Mca-[…]Dnp) for another 60 minutes' incubation period. Determination of the amount of Mca-Arg-Pro-Pro-Gly-Phe-Ser-Ala formed is read […] at 320 nm/405 nm. Compounds are screened at […].
IC50 values were determined by a non-linear, least squares regression analysis using MathIQ™ (ID Business Solutions Ltd., UK). […] The Hill coefficient (nH), defining the slope of the competitive binding curve, was calculated using MathIQ™.

[2] = molecular target: T1, Human recombinant cathepsin S; assay: Cathepsin S (CatS) enzyme assay; type: biochemical; settings: for inhibition at 10 µM: 10 μM compound
Procedure: as §1, §2
Human recombinant cathepsin S expressed in a murine myeloma NS0 cells is used. Test compound and/or vehicle is preincubated with 0.1 μg/ml enzyme in modified acetate buffer pH 4.5 for 15 minutes at 25° C. The reaction is initiated by addition of […] Z-Leu-Arg-AMC for another 30 minutes' incubation period. Determination of the amount of AMC formed is read spectrofluorimetrically at 360 nm/465 nm. […]
IC50 values were determined by a non-linear, least squares regression analysis using MathIQ™ (ID Business Solutions Ltd., UK). Inhibition constants K were calculated according to the equation of Cheng and Prusoff (Y. Cheng, W. H. Prusoff, Biochem. Pharmacol. 1973, 22, 3099-3108) using the observed IC50 of the tested compound, the concentration of radioligand employed in the assay, and the historical values for the KD of the ligand. The Hill coefficient (nH), defining the slope of the competitive binding curve, was calculated using MathIQ™.

[3] = molecular target: T3, Bombesin receptor subtype 3 (BB3 receptor) (Homo sapiens, UniProt P32247); assay: Ca2+ flux (FLIPR) assay, BB3 receptor, agonist/antagonist mode; type: cell-based; settings: agonist mode
T3 construct: expressed in transfected cells; host or cells: Ca2+ optimized hematopoietic cell lines (rat)
T3 sequence (P32247 1-399): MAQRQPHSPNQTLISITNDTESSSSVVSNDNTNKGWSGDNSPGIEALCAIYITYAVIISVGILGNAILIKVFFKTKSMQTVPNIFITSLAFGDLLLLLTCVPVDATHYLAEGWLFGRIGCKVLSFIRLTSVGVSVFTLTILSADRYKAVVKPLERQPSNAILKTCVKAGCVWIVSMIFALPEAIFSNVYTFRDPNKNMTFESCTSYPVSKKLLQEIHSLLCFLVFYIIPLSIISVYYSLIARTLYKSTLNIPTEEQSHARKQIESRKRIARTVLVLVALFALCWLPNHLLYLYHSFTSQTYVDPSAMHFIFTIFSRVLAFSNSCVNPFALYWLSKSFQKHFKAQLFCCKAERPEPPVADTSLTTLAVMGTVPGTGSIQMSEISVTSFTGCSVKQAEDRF
Procedure: Biological and Pharmacological Methods 1. Ca^2+ Flux Assays for the GPCRs Oxytocin Receptor (OT Receptor), Thyrotropin-Releasing Hormone Receptor (TRH Receptor) and Bombesin Receptor Subtype 3 (BB3 Receptor)
Assays were performed on a FLIPR^TETRA fluorometric imaging plate reader (Molecular Devices) with ScreenWorks Version 2 (Molecular Devices) as device operating and data analysis software.
Dose dependent agonist and antagonist activities were determined. Percentage activation and percentage inhibition values were determined.
Percentage activation was determined upon initial addition of the sample compounds followed by 10 minutes' incubation at 25° C. Following compound incubation, reference agonists were added at EC80 to determine percentage inhibition.
Reference agonists were purchased from reputable commercial vendors and prepared according to each ligand's specifications. All handling of ligands were done to ensure proper control throughout the experiments.
Example compounds were weighed on a Microbalance (Mettler MX5) and dissolved in 100% DMSO to a final concentration of 2.5 mM and subsequently diluted into the assay buffer.
The assay buffer was a supplemented HBSS (Hank's Balanced Salt Solution). HBSS was supplemented with 20 mM HEPES (4-(2-hydroxyethyl)-piperazin-1-ethansulfonic acid) and 2.5 mM Probenecid (Sigma P8761).
GPCR assays were performed using Ca^2+ optimized hematopoietic cell lines (rat) with cultures never exceeding 90% confluency. Cells were harvested and seeded (from cultures at less than 90% confluency) at 50000 cells/well for a 96-well plate (12500 cells/well for 384). After seeding, the assay plates were incubated for 45 minutes at room temperature. After room temperature incubation, the assay plates were incubated at 37° C. 5% CO2 for 24 hours prior to assaying.
All GPCR assays were performed using Fluo-8 Ca^2+ dye.
Ca^2+ dye was prepared at 1× dye concentration in GPCR assay buffer. After 24 hours of incubation, cells were washed with GPCR assay buffer, and then Ca^2+-dye (100 μL/well) was added.
The plates were incubated for 90 minutes at 30° C. 5% CO2 prior to FLIPR assay.
Compound plates were prepared to add 50 μL/well during the agonist assay mode. During the FLIPR assay, 50 μL/well from the compound plate was diluted 3-fold into the existing 100 μL/well from the dye loading step. Therefore all compounds were prepared as 3× the final concentration desired in the assay.
After completion of the first single addition assay run, assay plate was removed from the FLIPR Tetra and placed at 25° C. for 7 minutes before antagonist assay.
Using the EC80 values determined during the agonist assay, all pre-incubated sample compound and reference antagonist (if applicable) wells were stimulated at the EC80 of the reference agonist. As reference ligands for these assays their obvious natural ligands oxytocin (OT), thyrotropin-releasing hormone (TRH) and bombesin (6-14) [BN(6-14)] were used.
After the addition of the reference agonist fluorescence was monitored for 180 sec using FLIPR Tetra.
From the FLIPR data, with negative control correction enabled, the maximum statistic for each well was exported and percentage activation relative to Emax control was calculated.

| SMILES | Agonist activity % activation at 12.5 μM [3] | pIC50 (Human recombinant ECE-1) | inhibition at 10 µM (Human recombinant ECE-1) | pIC50 [2] | inhibition at 10 µM [2] | also measured |
| --- | --- | --- | --- | --- | --- | --- |
| CC(C)C[C@H](NC(=O)[C@H]1O[C@@H]1C(=O)O)C(=O)NCCCCN=C(N)N [E-64] | – | – | – | – | – | pIC50 [1]: 8.85 |
| CN1CCC[C@H](NC(=O)OCc2ccccc2)C(=O)N2C[C@@H](NC(=O)Cc3ccc4ccccc4c3)C[C@H]2COc2ccccc2-c2cccc(c2)C1=O [Ex. 18, benzyl N-[(10S,12S,16S)-20-methyl-12-{[2-(2-naphthyl)acetyl]amino}-15,21-dioxo-8-oxa-14,20-diazatetracyclo[20.3.1.0^2,7.0^10,14]hexacosa-1(26),2,4,6,22,24-hexaen-16-yl]carbamate] | – | 5.52 | 98% | 5.44 | 82% | – |
| CN1CCC[C@H](NC(=O)Cc2ccccc2)C(=O)N2C[C@@H](NC(=O)Cc3ccc4ccccc4c3)C[C@H]2COc2ccccc2-c2cccc(c2)C1=O [Ex. 25, N-[(10S,12S,16S)-20-methyl-15,21-dioxo-16-[(2-phenylacetyl)amino]-8-oxa-14,20-diazatetracyclo[20.3.1.0^2,7.0^10,14]hexacosa-1(26),2,4,6,22,24-hexaen-12-yl]-2-(2-naphthyl)acetamide] | – | 5.37 | 97% | 5.50 | 87% | – |
| CN1CCC[C@H](NC(=O)c2ccccc2)C(=O)N2C[C@@H](NC(=O)Cc3ccc4ccccc4c3)C[C@H]2COc2ccccc2-c2cccc(c2)C1=O [Ex. 26, N-[(10S,12S,16S)-20-methyl-12-{[2-(2-naphthyl)acetyl]amino}-15,21-dioxo-8-oxa-14,20-diazatetracyclo[20.3.1.0^2,7.0^10,14]hexacosa-1(26),2,4,6,22,24-hexaen-16-yl]benzamide] | – | 5.39 | 98% | 5.42 | 81% | – |

Now from value to compound, other results behind:

| Agonist activity % activation at 12.5 μM [3] | SMILES | pIC50 (Human recombinant ECE-1) | inhibition at 10 µM (Human recombinant ECE-1) | pIC50 [2] | inhibition at 10 µM [2] | also measured |
| --- | --- | --- | --- | --- | --- | --- |
| 84% | CN1CC[C@H](NC(=O)Cc2ccc3ccccc3c2)C(=O)N2C[C@@H](O)C[C@H]2COc2ccsc2-c2cc(n(C)n2)C1=O [Ex. 265, N-[(9S,11S,15S)-11-hydroxy-18,21-dimethyl-14,19-dioxo-7-oxa-3-thia-13,18,21,22-tetraazatetracyclo[18.2.1.0^2,6.0^9,13]tricosa-1(22),2(6),4,20(23)-tetraen-15-yl]-2-(2-naphthyl)acetamide] | – | – | – | – | pEC50 [3]: 6.20 |
| 61% | CN1CC[C@H](NC(=O)Cc2cccc3ccccc23)C(=O)N2C[C@@H](O)C[C@H]2COc2ccsc2-c2cc(n(C)n2)C1=O [Ex. 267, N-[(9S,11S,15S)-11-hydroxy-18,21-dimethyl-14,19-dioxo-7-oxa-3-thia-13,18,21,22-tetraazatetracyclo[18.2.1.0^2,6.0^9,13]tricosa-1(22),2(6),4,20(23)-tetraen-15-yl]-2-(1-naphthyl)acetamide] | – | – | – | – | – |
| 60% | CO[C@H]1C[C@H]2COc3ccsc3-c3cc(n(C)n3)C(=O)N(C)CC[C@H](NC(=O)Cc3ccc4ccccc4c3)C(=O)N2C1 [Ex. 275, N-[(9S,11S,15S)-11-methoxy-18,21-dimethyl-14,19-dioxo-7-oxa-3-thia-13,18,21,22-tetraazatetracyclo[18.2.1.0^2,6.0^9,13]tricosa-1(22),2(6),4,20(23)-tetraen-15-yl]-2-(2-naphthyl)acetamide] | – | – | – | – | pEC50 [3]: 6.11 |
| 39% | CN1CC[C@H](NCCc2ccc3ccccc3c2)C(=O)N2C[C@@H](O)C[C@H]2COc2ccsc2-c2cc(n(C)n2)C1=O [Ex. 282, (9S,11S,15S)-11-hydroxy-18,21-dimethyl-15-{[2-(2-naphthyl)ethyl]amino}-7-oxa-3-thia-13,18,21,22-tetraazatetracyclo[18.2.1.0^2,6.0^9,13]tricosa-1(22),2(6),4,20(23)-tetraene-14,19-dione] | – | – | – | – | – |
